The source of these data is patent publication US20160194274A1, “PHENANTHRENE DERIVATIVES FOR USE AS MEDICAMENTS” (VALENTIA BIOPHARMA, priority 2012, published 2016).

Molecules are shown by their SMILES.

The subject of one assay is CAG FAM-RNA probe. Nature of the assay: Gel retardation assay with FAM-CAG probe (SCA3). The format is binding. On the procedure:
(§1) FIG. 9. VLT002 binding assessment in additional toxic repeats linked to disease through hairpin formation.
(§2) Fluorescence Electrophoretic Mobility Shift Assay to test RNA-compound binding. Briefly, an aliquot of carboxyfluorescein (FAM)-CUG10 RNA (DM1, HDL2, SCA8; see FIG. 6) was heated at 70° C. for 5 min and diluted to 300 nM. The binding reaction with compounds was then carried out as described in (Garcia-Lopez A et al. Proc. Natl. Acad. Sci. USA. 108(29):11866-71 (2011)). The reaction mix was loaded onto 8% polyacrylamide nondenaturing gels, and electrophoresis was conducted at 4° C. in TB 1× for approximately 30 min at 240V, followed by fluorescence visualization. Quantification of the free RNA band intensity was carried out using the ImageJ software. A non-linear regression analysis was used to calculate EC50, based on a total of three experimental replicates. Same approach was developed with (FAM)-CCUG8 (DM2), CAG10 (SCA3), CGG10 (FXTAS), GGGGCC5 (ALS/FSD), UGGAA6 (SCA31) probes (see FIG. 9).

Another assay deals with CCUG FAM-RNA probe. Kind of assay: Gel retardation assay with FAM-CCUG probe (DM2). The assay is classed as binding. On the procedure: as §1, §2
Another assay deals with GGGGCC FAM-RNA probe. Kind of assay: Gel retardation assay with FAM-GGGGCC probe (FTD/ALS). The format is binding. On the procedure:
as §1, §2

Another assay has as its system UGGAA FAM-RNA probe. Kind of assay: Gel retardation assay with FAM-UGGAA probe (SCA31). The format is binding. On the procedure: as §1, §2
The next assay deals with cTNT exon 5 splicing. Nature of the assay: RT-PCR of cTNT splicing event in human myoblasts. The format is cell-based. On the procedure:
FIG. 5. Recovering of DM1 aberrant cTNT splicing event. […] Upper section, right: Recovering was significant at 25 μM.
Additional assays involved: • Reverse Transcription-PCR (RT-PCR) to detect levels of normal/aberrant splicing events in specific genes. This approach was performed in human cells from patients (see FIG. 5) or from DM1 mouse (see FIG. 8 up) (HSA^LR, Mankodi A et al., Science, 289:1769-1773 (2000)) tissues (skeletal muscle), from which total RNA was extracted from ˜0.5-1.5×10^5 cells using the Zygem Tissue Plus kit. Serca 1, Cypher or cTNNT genes reverse transcription were performed and quantification of normal/aberrant spliced band forms was obtained (ImageJ software) after running PCR products in 2% agarose gels. As shown in FIGS. 5 and 8 compounds of the invention are able to recover disease phenotypes. • Drosophila Muscle Histology, where five-day old Drosophila thoraces were embedded in Epon for transversal, semi-thin sectioning. Muscle area was quantified (see FIG. 3) by binarizing images (equal dimensions) and quantifying pixels (%) within muscle tissue with ImageJ software. […] A minimum of 8 flies were analyzed in each case.

In another assay the test system is FAM-CUU probe. Kind of assay: Gel retardation assay with FAM-CUU probe (negative control). The assay is classed as binding.
The test system of another assay is CGG FAM-RNA probe. Nature of the assay: Gel retardation assay with FAM-CGG probe (FXTAS). The assay is classed as binding. On the procedure:
as §1, §2

Another assay relates to FAM-(CUG)10 RNA. Nature of the assay: Gel retardation assay (fluorescence EMSA) with FAM-(CUG)10. The format is binding. On the procedure: FIG. 6. Study of the binding of some compounds of Formula I (VLT002, VLT025 and VLT026) to FAM-(CUG)10 (repeat tract present in DM1, HDL2, SCA8 diseases) by means of gel retardation assays.
as §2
(In EMSA bound probe runs differently from free probe, usually more slowly.)

The next assay concerns Clcn1 protein. Nature of the assay: Immunofluorescent detection of Clcn1 protein in HSA LR mouse quadriceps. The format is in vivo. Particulars: 100 μg. On the procedure:
FIG. 8. Recovering of disease phenotypes (molecular, histological and functional) in in vivo DM1 mice (HSA^LR). Upper section: VLT002 and VLT025 suppressed splicing defects in DM1 mouse skeletal muscles. VLT002 (10 μg) and VLT025 (100 μg) were intramuscular injected in the right tibialis anterior (TA) and left quadriceps (Q), respectively, of HSA^LR mice that expressed 300 CTG repeats. […] All graphs show the mean and SEM from VLT002 and VLT025-responsive animals. Middle section: Immunofluorescent detection of trans-membrane Clcn1 protein (cell outlines in gray) in quadriceps sections of no-DM1 mouse (control) and HSA^LR mice without treatment (10150.5 QD-DMSO treated) and after VLT025 treatment (10150.5 QI).
Also, an immunohistochemistry approach was used to measure ClC-1 protein levels (see FIG. 8 middle) in mouse tissues (skeletal muscle). Briefly, frozen sections of tibialis anterior & quadriceps muscle were prepared for routine immunostaining by using antibody against the ClC-1 protein (Alpha Diagnostic, San Antonio, Tex.). Primary antibody concentration used was 1:50 for ClC-1. Secondary antibody was goat anti-rabbit Alexa Fluor 488 and 546 (Invitrogen) at 1:400. Stacks of Z plane images were processed by using a blind point spread function. […]

Regarding `CN(C)CCc1cc2c(c3c1ccc1ccccc13)OCO2` [VLT002, Stephenanthrine], the “binding to CAG (SCA3) probe” value with CAG FAM-RNA probe is recorded as “caused retention of the complex in the well”. Also, the “binding to CCUG (DM2) probe” value in the assay on CCUG FAM-RNA probe is “caused retention of the complex in the well”. Besides, the “binding to GGGGCC (FTD/ALS) probe” value in the assay on GGGGCC FAM-RNA probe is reported as “caused retention of the complex in the well”. Besides, the “binding to UGGAA (SCA31) probe” value in the assay on UGGAA FAM-RNA probe was “caused retention of the complex in the well”. Moreover, the “recovering of normal cTNT splicing (ex5 exclusion)” value in the assay with cTNT exon 5 splicing (DM1 myoblasts, 25 μM) is reported as “partial recovering”. Besides, in the assay with cTNT exon 5 splicing (human myoblasts), the “expression of housekeeping gene (GAPDH)” value was “No expression changes”. The “levels of cTNT exon 5 exclusion in no DM1 cells” value with cTNT exon 5 splicing (no DM1 human myoblasts, dose-response) was “no changes”. Besides, the “binding to FAM-CUU probe” value in the assay on FAM-CUU probe is given as “did not bind”. Further, the “binding to CGG (FXTAS) probe” value with CGG FAM-RNA probe is reported as “caused retention of the complex in the well”. Moreover, the “binding to FAM-CUG10” value with FAM-(CUG)10 RNA is reported as “bind to FAM-CUG10”.

For the molecule `C[N+](C)(C)CCc1cc2c(c3c1ccc1ccccc13)OCO2` [VLT025], in the assay with Clcn1 protein, the “Clcn1 fluorescent signal vs DMSO-treated contra-lateral limb” value is listed as “significantly stronger”. The “binding to FAM-CUG10” value in the assay on FAM-(CUG)10 RNA was “bind to FAM-CUG10”.
